Experiments:
in vivo = conditions: nude (nu/nu), mouse, 180 mg/kg/day
Method: The fluconazole dose approximately corresponded to a human equivalent dose of 100 mg/day for a 70 kg human. […] These doses are within the standard range of human treatment doses for both of these antifungal agents. Animals were sacrificed four hours after the last drug dosing and levels of fenretinide measured in the plasma by a HPLC methodology.

[1] = Effect of various dosages of ketoconazole on fenretinide levels in mouse plasma (Example 3, HPLC); type: in vivo; conditions: NOD/SCID mice; ketoconazole 37, 75 or 150 mg/kg/day, nine doses, starting two days prior to fenretinide 180 mg/kg/day, five doses; all dose levels, P<0.05
From the text: Animals were sacrificed four hours after the last drug dosing and levels of fenretinide measured in the blood plasma by a HPLC methodology.

[2] = nude mice bearing SMS-KCNR xenografts; ketoconazole 50 mg/kg/day, nine doses, starting two days prior to fenretinide 180 mg/kg/day, five doses

Compound: CC1=C(/C=C/C(C)=C/C=C/C(C)=C/C(=O)Nc2ccc(O)cc2)C(C)(C)CCC1 [fenretinide, N-(4-hydrophenyl) retinamide]
- concentration at 4 h (in vivo): 12.6 µM

Compound: CC(=O)N1CCN(c2ccc(OCC3COC(Cn4ccnc4)(c4ccc(Cl)cc4Cl)O3)cc2)CC1 (stereo not drawn) [ketoconazole]
- effect on mean fenretinide level in plasma compared to controls [1]: significantly increased
- effect on fenretinide levels in tumor tissue [2]: increased

Source: US20140329832A1, “METABOLIC DEGRADATION INHIBITORS FOR ANTI-HYPERPROLIFERATIVE AGENTS” (CHILDRENS HOSPITAL LOS ANGELES, priority 2007, published 2014)
